Experimental data taken from ChEMBL document CHEMBL4622912, “Isolation and biological activity of agrostophillinol from kaffir lime (Citrus hystrix) leaves” (Bioorg Med Chem Lett, 2020).
≈ marks a conversion by molar mass, not a printed value. Calls of active or inactive are those of the source. The calls are words filed in the database; no cut-off is given here.

Key:
HL-60 = experiment: Antiproliferative activity against human HL60 cells incubated for 2 days by MTT assay; format: functional, cell-based; settings: HL-60, 48 h
[1] = Antioxidant activity assessed as ferric reducing ability; format: functional
[2] = Antioxidant activity assessed as trolox equivalent antioxidant capacity; format: functional
K562 = experiment: Antiproliferative activity against human K562 cells assessed as reduction in cell viability incubated for 2 days by MTT assay; format: functional, cell-based; settings: K562, 48 h
[3] = Cytotoxicity against mouse RAW264.7 cells assessed as reduction in cell viability incubated for 2 days by MTT assay; format: cell-based
[4] = Cytotoxicity against mouse RAW264.7 cells assessed as cell viability at 2.7 ug/ml incubated for 2 days by MTT assay relative to control; format: cell-based; settings: read-out: Activity
KG-1a = experiment: Antiproliferative activity against human KG1a cells assessed as reduction in cell viability incubated for 2 days by MTT assay; format: functional, cell-based; settings: 48 h
RAW264.7 [5] = experiment: Antiinflammatory activity against mouse RAW264.7 cells assessed as reduction in TNFalpha level at 2.7 ug/ml; format: functional, cell-based
EOL1 = experiment: Antiproliferative activity against human EOL1 cells incubated for 2 days by MTT assay; format: functional, cell-based; settings: EOL1, 48 h
RAW264.7 [6] = experiment: Antiinflammatory activity against mouse RAW264.7 cells assessed as reduction in IL6 level at 2.7 ug/ml; format: functional, cell-based
[7] = Antioxidant activity assessed as DPPH radical scavenging activity; format: functional; settings: dose or concentration not given here
PBMC = experiment: Cytotoxicity against human PBMC assessed as reduction in cell viability incubated for 2 days by MTT assay; format: cell-based; settings: 48 h
RAW264.7 [8] = experiment: Antiinflammatory activity against mouse RAW264.7 cells assessed as reduction in IL6 level; format: functional, cell-based
RAW264.7 [9] = experiment: Antiinflammatory activity against mouse RAW264.7 cells assessed as reduction in TNFalpha level; format: functional, cell-based

With `CC[C@]1(O)C[C@H]2CN(CCc3c([nH]c4ccccc34)[C@@](C(=O)OC)(c3cc4c(cc3OC)N(C=O)[C@H]3[C@@](O)(C(=O)OC)[C@H](OC(C)=O)[C@]5(CC)C=CCN6CC[C@]43[C@@H]65)C2)C1` [VINCRISTINE] as the molecule, how does the IC50 (HL-60) read?
Its IC50 is 0.008 µg/mL (≈ 0.0097 µM).

Which Activity [1] does the source give for `O=C1O[C@H]([C@@H](O)CO)C(O)=C1O` here?
Its Activity is 23.7 µM.

What about the Activity [2] of the same molecule?
Its Activity is 1.7 µM.

For `C=C(C)[C@@H]1CC[C@]2(C)CC[C@]3(C)[C@H](CC[C@@H]4[C@@]5(C)CC[C@H](O)C(C)(C)[C@@H]5CC[C@]43C)[C@@H]12` [LUPEOL], which IC50 (K562) is on record?
Its IC50 is 82.8 µg/mL (≈ 194 µM).

For `C=C(CC[C@@H](C)[C@H]1CC[C@@]2(C)[C@@H]3CC[C@H]4C(C)(C)[C@@H](O)CC[C@]4(C)C3=CC[C@]12C)C(C)C`, which IC20 at 48 h [3] is on record?
Its IC20 at 48 h is 2.7 µg/mL (≈ 6.13 µM).

And the viability at 48 h, 2.7 ug/ml [4]?
The viability at 48 h, 2.7 ug/ml was 80%.

What about the IC50 (KG-1a) of the same molecule?
Its IC50 is > 100 µg/mL.

What about the IC50 (K562) of the same molecule?
The IC50 was > 100 µg/mL.

What about the Activity [1] of the same molecule?
Its Activity is 0.2 µM.

What about the Activity [2] of the same molecule?
Its Activity is 0.1 µM.

What about the inhibition (RAW264.7 [5]) of the same molecule?
The inhibition was “Active”.

And the IC50 (EOL1)?
Its IC50 is 36.3 µg/mL (≈ 82.4 µM).

What about the inhibition (RAW264.7 [6]) of the same molecule?
Its inhibition is “Active”.

What about the inhibition [7] of the same molecule?
Its inhibition is 8.6%.

What about the IC50 (HL-60) of the same molecule?
The IC50 was 53.4 µg/mL (≈ 121 µM).

And the IC50 (PBMC)?
The IC50 was > 100 µg/mL.

With `C/C(=C\CO)CCC[C@H](C)CCC[C@H](C)CCCC(C)C` [TRANS-PHYTOL] as the molecule, how does the IC50 (K562) read?
Its IC50 is 45.8 µg/mL (≈ 154 µM).

What does the source list for `C[C@@H]1C[C@H]2[C@@H]3CCC4=CC(=O)C=C[C@]4(C)[C@@]3(F)[C@@H](O)C[C@]2(C)[C@@]1(O)C(=O)CO`?
inhibition (RAW264.7 [8]): Dose-dependent effect; inhibition (RAW264.7 [9]): Dose-dependent effect
